In US11225642B2, “Method for producing renal progenitor cells” (KYOTO UNIVERSITY, priority 2013, dated 2022):

System: OSR1-GFP & SIX2-tdTomato reporter human iPS cell line (4A6C3-10)
Assay: SIX2-positive cell induction method 4, OSR1+SIX2+ cell rate by flow cytometer
Assay type: cell-based
Protocol: 4A6C3-10 was cultured at 37° C. in a 2% to 5% CO2 atmosphere to become 70% to 80% confluent on 10-cm dishes containing a primate ES medium (ReproCELL) supplemented with 500 U/ml penicillin/streptomycin (Invitrogen) and 5 ng/ml recombinant human basic fibroblast growth factor (bFGF, Wako) with the use of ICR-mouse-embryo (fetus 12.5 days old)-derived mouse embryonic fibroblasts (MEF) or SNL feeder cells (McMahon, A. P. and Bradley, A. (1990) Cell 62; 1073-1085) (these cells being previously treated with 15.5 μg/ml mitomycin (Kyowa Hakko Kirin Co., Ltd.) for 2 to 3 hours and seeded at a density of 2×10^5 cells/6-cm dish) as feeder cells. The 10-cm plates containing the cells were rinsed with PBS and treated with a CTK solution (PBS containing 0.25% Trypsin (Invitrogen), 0.1% Collagenase IV (Invitrogen), 20% KnockOut SR (KSR, Invitrogen), and 1 mM CaCl2) at 37° C. for 4 minutes. The CTK solution was removed by rinsing with PBS. Then, the medium was exchanged with DMEM/F12+Glutamax (Invitrogen) containing 0.1 mM MEM NEAA (Invitrogen), 1000 U/ml penicillin/streptomycin, 0.55 mM 2-mercaptoethanol (Invitrogen), and 20% KSR. Subsequently, the cells were scraped using a cell scraper and seeded on 6-cm plates coated with 0.2% gelatin to remove feeder cells. One hour later, the cells were washed with DMEM/F12+Glutamax [stage-1 medium] containing 500 U/ml penicillin/streptomycin and 2% FBS (HyClone), transferred to ultra-low attachment dishes (Corning 3471) having a stage-1 medium containing 100 ng/ml recombinant human/mouse/rat Activin A (R&D Systems) and 1 μM CHIR99021, and cultured at 37° C. in a 5% CO2 atmosphere for 2 days.
In order to differentiate into the intermediate mesoderm, the cell mass (embryoid body (EB)) obtained at stage 1 was transferred to a 24-well plate coated with Synthemax II (Corning), the medium was exchanged with DMEM/F12+Glutamax containing 0.1 mM MEM NEAA, 500 U/ml penicillin/streptomycin, 0.55 mM 2-mercaptoethanol, 10% KSR, 100 ng/ml BMP7 (recombinant human BMP7, R&D Systems), and 1 μM CHIR99021, and the cells were cultured at 37° C. in a 5% CO2 atmosphere for 3 days.
After stage 2, the medium was exchanged with DMEM/F12+Glutamax containing 0.1 mM MEM NEAA, 500 U/ml penicillin/streptomycin, 0.55 mM 2-mercaptoethanol, 10% KSR, 1 μM TTNPB (Sigma T3757), and 5 ng/ml TGFβ1 (Peprotech), followed by culturing at 37° C. in a 5% CO2 atmosphere for 5 days. The medium was exchanged with a medium having the same conditions two days after the start of culture (i.e., day 8 from the start of stage 1 (day 1)).
After stage 3, the medium was exchanged with DMEM/F12+Glutamax containing 0.1 mM MEM NEAA, 500 U/ml penicillin/streptomycin, 0.55 mM 2-mercaptoethanol, 10% KSR, 5 ng/ml TGFβ1, and 0.5 μM DMH1 (Tocris), followed by culturing at 37° C. in a 5% CO2 atmosphere for 17 days (i.e., culturing for 28 days in total from the start of stage 1 (day 1); FIG. 3A). In this case, the medium was exchanged every 3 days with a medium having the same conditions. […] In addition, the OSR1^+SIX2^+ cell rate reached the maximum level on day 25 of culture and then it was confirmed to be maintained until day 28 of culture (FIG. 3D).
Induction of OSR1^+SIX2^+ cells from the 4A6C3-10 iPS cell line was examined using different combinations of TGFβ signaling activators and BMP inhibitors. Specifically, induction of OSR1^+SIX2^+ cells from 4A6C3-10 was examined under conditions 1) to 10) described below. […]

Substance: TGFβ1: TGFβ signaling activator protein (Peprotech)
- induction of OSR1+SIX2+ cells (Example 8, comparison of combinations of TGFβ signaling activators and BMP inhibitors at stage 4 (FIG. 4)): effective
- OSR1-positive and SIX2-positive (OSR1+SIX2+) cell rate (induction method 4, stage 4 medium with 5 ng/ml TGFβ1 and 0.5 μM DMH1, day 28 of culture): 32.8%
